Results reported in BigSolDB 2.1.

CCCCCCCC[n+]1csc2ccccc21.F[P-](F)(F)(F)(F)F
Conditions	solubility (mole fraction)
in furfural, 271.1 K	0.33
in furfural, 274.97 K	0.35
in furfural, 278.47 K	0.38
in furfural, 281.46 K	0.396
in furfural, 285.15 K	0.423
in furfural, 287.37 K	0.445
in furfural, 289.48 K	0.471
in furfural, 292.47 K	0.5
in furfural, 296.07 K	0.541
in furfural, 300.95 K	0.597
in furfural, 305.47 K	0.64
in furfural, 311.66 K	0.711
in furfural, 314.97 K	0.745
in furfural, 318.86 K	0.786
in furfural, 321.52 K	0.81
in furfural, 323.8 K	0.829
in furfural, 327.08 K	0.858
in water, 278.15 K	1.79e-05
in water, 283.2 K	2.1e-05
in water, 290.15 K	2.61e-05
in water, 294.15 K	3.12e-05
in water, 300.15 K	4.01e-05
in water, 308.15 K	5.5e-05
in water, 313.15 K	7e-05
in water, 318.15 K	9.11e-05
in water, 323.15 K	0.000107
in water, 328.15 K	0.000128
in water, 333.15 K	0.000142
in water, 338.15 K	0.000163
in water, 342.95 K	0.000179
in water, 348.15 K	0.000196
in water, 352.75 K	0.000212
in water, 358.05 K	0.000235
in water, 363.15 K	0.000261
in water, 367.75 K	0.000285

CCCC[n+]1csc2ccccc21.F[P-](F)(F)(F)(F)F
Conditions	solubility (mole fraction)
in furfural, 273.3 K	0.155
in furfural, 281.45 K	0.185
in furfural, 288.25 K	0.205
in furfural, 298.35 K	0.246
in furfural, 302.93 K	0.263
in furfural, 311 K	0.3
in furfural, 317.62 K	0.333
in furfural, 324.5 K	0.364
in furfural, 331.25 K	0.393
in water, 278.15 K	6.76e-05
in water, 283.2 K	8.72e-05
in water, 288.1 K	0.000113
in water, 293.05 K	0.000139
in water, 298.15 K	0.000168
in water, 302.95 K	0.000204
in water, 308.55 K	0.000237
in water, 313.15 K	0.000297
in water, 318.1 K	0.000355
in water, 323 K	0.000405
in water, 327.95 K	0.000478
in water, 333.1 K	0.0006
in water, 338.05 K	0.000721
in water, 343.1 K	0.000839
in water, 348 K	0.001
in water, 353.15 K	0.00116
in water, 357.9 K	0.00142
in water, 363 K	0.00175
in water, 367.9 K	0.00198

CCCCC[n+]1csc2ccccc21.F[P-](F)(F)(F)(F)F
Conditions	solubility (mole fraction)
in furfural, 272.3 K	0.085
in furfural, 277.25 K	0.0866
in furfural, 284.65 K	0.0981
in furfural, 290.85 K	0.108
in furfural, 296.15 K	0.118
in furfural, 302.85 K	0.131
in furfural, 313.5 K	0.151
in furfural, 321.04 K	0.171
in furfural, 324.75 K	0.189
in furfural, 330 K	0.214
in furfural, 335.04 K	0.239
in water, 278.15 K	2.36e-05
in water, 282.35 K	2.97e-05
in water, 290.15 K	4.01e-05
in water, 295.15 K	4.89e-05
in water, 302.15 K	6.5e-05
in water, 308.15 K	8.63e-05
in water, 313.25 K	0.00011
in water, 318.15 K	0.00013
in water, 323.15 K	0.000153
in water, 328.15 K	0.000189
in water, 330.05 K	0.000205
in water, 333.15 K	0.000226
in water, 338.05 K	0.000259
in water, 342.75 K	0.000293
in water, 348.15 K	0.000356
in water, 353.15 K	0.000466
in water, 357.95 K	0.000676
in water, 363.15 K	0.000878
in water, 368.05 K	0.00109

CCCCCCC[n+]1csc2ccccc21.F[P-](F)(F)(F)(F)F
Conditions	solubility (mole fraction)
in furfural, 272.2 K	0.27
in furfural, 274.55 K	0.276
in furfural, 280.85 K	0.297
in furfural, 284.65 K	0.318
in furfural, 291.71 K	0.35
in furfural, 296.7 K	0.38
in furfural, 301.2 K	0.41
in furfural, 304.21 K	0.433
in furfural, 307.6 K	0.451
in furfural, 310.41 K	0.47
in furfural, 313.72 K	0.487
in furfural, 315.6 K	0.503
in furfural, 318.68 K	0.532
in furfural, 322.88 K	0.561
in furfural, 325.58 K	0.582
in furfural, 327.81 K	0.601
in furfural, 329.99 K	0.622
in furfural, 331.87 K	0.644
in water, 278.15 K	2.26e-05
in water, 282.35 K	2.91e-05
in water, 288.15 K	3.5e-05
in water, 294.15 K	4.2e-05
in water, 300.15 K	5.5e-05
in water, 308.15 K	7.07e-05
in water, 313.05 K	8.48e-05
in water, 318.15 K	0.000106
in water, 323.15 K	0.000124
in water, 328.15 K	0.000155
in water, 333.15 K	0.000186
in water, 338.05 K	0.00023
in water, 342.75 K	0.000272
in water, 348.45 K	0.000311
in water, 353.15 K	0.000357
in water, 358.15 K	0.00041
in water, 363.35 K	0.000464
in water, 368.55 K	0.000521

CCCCCC[n+]1csc2ccccc21.F[P-](F)(F)(F)(F)F
Conditions	solubility (mole fraction)
in furfural, 273.25 K	0.201
in furfural, 276 K	0.208
in furfural, 282.04 K	0.234
in furfural, 290.19 K	0.269
in furfural, 296.05 K	0.297
in furfural, 301.03 K	0.321
in furfural, 305.08 K	0.345
in furfural, 308.23 K	0.366
in furfural, 311.95 K	0.385
in furfural, 315.95 K	0.406
in furfural, 318.39 K	0.424
in furfural, 321.62 K	0.451
in furfural, 325.05 K	0.479
in furfural, 327.64 K	0.513
in furfural, 330.95 K	0.55
in furfural, 333.5 K	0.581
in furfural, 335.75 K	0.616
in water, 278.15 K	3.17e-05
in water, 282.75 K	3.31e-05
in water, 289.15 K	4.3e-05
in water, 294.15 K	5.12e-05
in water, 298.15 K	6.5e-05
in water, 303.15 K	7.64e-05
in water, 308.15 K	9.38e-05
in water, 313.15 K	0.000109
in water, 318.15 K	0.000129
in water, 323.15 K	0.000156
in water, 328.15 K	0.00021
in water, 330.15 K	0.000235
in water, 333.05 K	0.000256
in water, 338.05 K	0.000322
in water, 342.75 K	0.000404
in water, 347.95 K	0.000463
in water, 352.95 K	0.000543
in water, 357.75 K	0.000595
in water, 362.95 K	0.000659
in water, 367.95 K	0.000743
